Patent US6962714B2, “Critical fluid antimicrobial compositions and their use and generation” (priority 2002, dated 2005)

What was measured:
Assay type in all cases: cell-based
[1] = system: Staphylococcus aureus ATCC 6538; test: Hard surface test, stainless steel coupon exposed to vent gas in closed vessel; settings: S. aureus ATCC 6538, vent gas five minutes
Method: (§1) The efficacy of peroxyacetic acid antimicrobial delivered via CO2 gas was tested in a hard surface test against Escherichia coli and Staphylococcus aureus.
(§2) The coupons were exposed to the peroxyacetic acid antimicrobial vent gas for five minutes. Dry and wet methods were used for the testing. In the dry method, a dry film was generated on the coupon by adding a 20 μl suspension onto the coupon surface and drying the solution prior to the experiment. In the wet method, the 20 μl suspension was added to the coupon surface immediately before placing the coupon in the syringe and exposing it to the antimicrobial gas. After exposure to the antimicrobial gas for a set time period, the coupon was removed and placed in an appropriate neutralizer to stop the antimicrobial chemical activity. The bacteria remaining on the coupons were then incubated and the population reduction was determined.

[2] = system: Escherichia coli ATCC 11229; test: as above; settings: E. coli ATCC 11229, vent gas five minutes
Method: as §1, §2

[3] = system: Staphylococcus aureus ATCC 6538; test: Aqueous suspension (solution) test, antimicrobial vent gas bubbled through broth; settings: S. aureus ATCC 6538, POAA in CO2 gas bubbled through 10 ml bacteria solution
Method: (§3) Exposure times of 30 seconds and two minutes were tested.

[4] = system: Escherichia coli ATCC 11229; test: as above; settings: E. coli ATCC 11229, POAA in CO2 gas bubbled through 10 ml bacteria solution
Method: as §3

[5] = dry method (dry bacterial film on coupon)
[6] = wet method (20 μl bacterial suspension on coupon)
[7] = exposure 2 minutes, listed as peroxyacetic acid

CC(=O)OO [POAA, peroxyacetic acid]
Log Reduction [1, 5]: 5.5 log | Log Reduction [1, 6]: 5.5 log | Log Reduction [2, 5]: 6.5 log | Log Reduction [2, 6]: 6.5 log | Log Reduction ([3]; exposure 30 seconds): 2.5 log | Log Reduction ([3]; exposure 2 minutes): 6.3 log | Log Reduction [3, 7]: greater than 6 log | Log Reduction ([4]; exposure 30 seconds): 1.1 log | Log Reduction ([4]; exposure 2 minutes): 6.1 log | Log Reduction [4, 7]: greater than 6 log
